Experimental data taken from patent US20150175530A1, “ANTIBACTERIAL AGENTS” (priority 2012, published 2015).
Converted amounts (≈) assume the structure as drawn. Where two headings read alike, the source gives them in different places.

What was measured:
[1] = system: bacterial isolates (clinical isolates and ATCC quality control strains); experiment: Minimum Inhibitory Concentrations (MICs) by broth microdilution (CLSI susceptibility testing); assay type: cell-based
How it was run: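 Broth microdilution per CLSI in cation-adjusted Mueller-Hinton broth, 2-fold serial drug dilutions, final inoculum 3×10^5–7×10^5 CFU/mL. Plates incubated 18-24 h at 35 °C in ambient air; MIC is lowest concentration preventing visible growth (OD600 nm<0.05), with levofloxacin and QC strains monitoring performance.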

[2] = system: 3 P. aeruginosa strains (APAE001, APAE002, APAE006); experiment: Protein binding: fold change in MIC in the presence of 2% HSA and 0.05% AGP, Geomean of 3 strains; assay type: cell-based, Pseudomonas aeruginosa; conditions: MIC in the presence of 2% HSA and 0.05% AGP divided by MIC in the absence; Geomean of 3 P. aeruginosa strains (APAE001, APAE002, APAE006)
How it was run: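 MIC against each strain was determined by the standard broth method in cation-adjusted Mueller-Hinton broth with and without 2% HSA plus 0.05% AGP. Fold change is the MIC ratio with/without protein per strain; the value reported is the geometric mean over APAE001, APAE002 and APAE006.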

[3] = APAE1096 is a clinical isolate, broth microdilution, read-out: Minimum Inhibitory Concentrations (MICs) APAE1096
[4] = Pseudomonas aeruginosa, APAE002 is a wildtype lab strain of Pseudomonas aeruginosa known as PAM1020 or PA01, broth microdilution, read-out: Minimum Inhibitory Concentrations (MICs) APAE002
[5] = Pseudomonas aeruginosa, ATCC27853, APAE001 is Pseudomonas aeruginosa ATCC27853, broth microdilution, read-out: Minimum Inhibitory Concentrations (MICs) APAE001

| SMILES | MIC [1, 3] [µg/mL] | MIC [1, 4] [µg/mL] | MIC [1, 5] [µg/mL] | Protein Binding PB (Geomean of fold change in MIC) [2] | MIC ([1]; Pseudomonas aeruginosa, ATCC27853, read-out: Minimum Inhibitory Concentrations (MICs) APAE001) [µg/mL] | MIC ([1]; Pseudomonas aeruginosa, read-out: Minimum Inhibitory Concentrations (MICs) APAE002) [µg/mL] | MIC ([1]; read-out: Minimum Inhibitory Concentrations (MICs) APAE1096) [µg/mL] |
| --- | --- | --- | --- | --- | --- | --- | --- |
| C[C@H](O)C#CC#Cc1ccc(C(=O)N[C@H](C(=O)NO)[C@@H](C)N)cc1 [Compound 41, N-((2S,3R)-3-amino-1-(hydroxyamino)-1-oxobutan-2-yl)-4-((S)-5-hydroxyhexa-1,3-diyn-1-yl)benzamide] | 1 to 8 (≈ 3.04 to 24.3 µM) | < 1 | < 1 | 2 |  |  |  |
| CC(C)(N)[C@H](NC(=O)c1ccc(C#CC#CCO)cc1)C(=O)NO [Compound 1, (S)—N-(3-amino-1-(hydroxyamino)-3-methyl-1-oxobutan-2-yl)-4-(5-hydroxypenta-1,3-diynyl)benzamide] |  |  |  | 4.1 | < 1 | < 1 | < 1 |
| CC(C)(N)[C@H](NC(=O)c1ccc(C#C/C=C/CO)cc1)C(=O)NO [Compound 3, (S,E)-N-(3-amino-1-(hydroxyamino)-3-methyl-1-oxobutan-2-yl)-4-(5-hydroxypent-3-en-1-ynyl)benzamide] | 1 to 8 (≈ 3.02 to 24.1 µM) | < 1 | < 1 | 1.3 |  |  |  |
| CC(C)(N)[C@H](NC(=O)c1ccc(C#CC#CC2(O)CCC(CO)C2)cc1)C(=O)NO (stereo partly drawn) [Compound 57, N—((S)-3-amino-1-(hydroxyamino)-3-methyl-1-oxobutan-2-yl)-4-((1-hydroxy-3-(hydroxymethyl)cyclopentyl)buta-1,3-diyn-1-yl)benzamide] | 1 to 8 (≈ 2.42 to 19.3 µM) | < 1 | < 1 | 1.6 |  |  |  |
| CC(C)(N)[C@H](NC(=O)c1ccc(C#CCO)cc1)C(=O)NO [Compound 2, (S)—N-(3-amino-1-(hydroxyamino)-3-methyl-1-oxobutan-2-yl)-4-(3-hydroxyprop-1-ynyl)benzamide] | 8 to 16 (≈ 26.2 to 52.4 µM) | 1 to 8 (≈ 3.28 to 26.2 µM) | < 1 | 1.3 |  |  |  |
| CC(C)(N)[C@H](NC(=O)c1ccc(C#CC#C[C@H]2CC[C@@](O)(CO)CC2)cc1)C(=O)NO [Compound 33A, N—((S)-3-amino-1-(hydroxyamino)-3-methyl-1-oxobutan-2-yl)-4-(((1S,4R)-4-hydroxy-4-(hydroxymethyl)cyclohexyl)buta-1,3-diynyl)benzamide] | 8 to 16 (≈ 18.7 to 37.4 µM) | < 1 | 1 to 8 (≈ 2.34 to 18.7 µM) | 2.6 |  |  |  |
| CC(C)(N)[C@H](NC(=O)c1ccc(C#CC#C[C@@H](O)CCO)cc1)C(=O)NO [Compound 54, N—((S)-3-amino-1-(hydroxyamino)-3-methyl-1-oxobutan-2-yl)-4-((S)-5,7-dihydroxyhepta-1,3-diyn-1-yl)benzamide] | 8 to 16 (≈ 21.4 to 42.8 µM) | < 1 | < 1 | 2.0 |  |  |  |
| CC(C)(N)[C@H](NC(=O)c1ccc(C#CC#C[C@H]2[C@@H](CO)[C@H]2CO)cc1)C(=O)NO [Compound 23B, N—((S)-3-amino-1-(hydroxyamino)-3-methyl-1-oxobutan-2-yl)-4-(((1R,2R,3S)-2,3-bis(hydroxymethyl)cyclopropyl)buta-1,3-diynyl)benzamide] | 8 to 16 (≈ 20 to 40.1 µM) | 1 to 8 (≈ 2.5 to 20 µM) | 1 to 8 (≈ 2.5 to 20 µM) | 2.0 |  |  |  |
| CC(C)(N)[C@H](NC(=O)c1ccc(C#CC#C[C@H]2CC2(CO)CO)cc1)C(=O)NO [Compound 24, N—((S)-3-amino-1-(hydroxyamino)-3-methyl-1-oxobutan-2-yl)-4-(((R)-2,2-bis(hydroxymethyl)cyclopropyl)buta-1,3-diynyl)benzamide] | 1 to 8 (≈ 2.5 to 20 µM) | 1 to 8 (≈ 2.5 to 20 µM) | 1 to 8 (≈ 2.5 to 20 µM) | 2.5 |  |  |  |
